The record followed here is PubChem BioAssay (NCI).

Several values for one entry are separate records, joined by “and”; a condition that tells them apart may be missing. Equal entries are not always repeated.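 Where inhibition never reached the appropriate level, the endpoint shown equals the highest concentration tested. Otherwise, values were interpolated linearly from a five-concentration, 48-hour dose response in 96-well plates. Here, GI50 denotes the concentration required for 50% inhibition of growth. TGI is the concentration that stops growth completely.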

Test systems include MOLT-4 leukemia; MALME-3M melanoma; CCRF-CEM leukemia; SF-268 CNS; LOX IMVI melanoma; RPMI-8226 leukemia; HT29 colon; HCT-116 colon; CAKI-1 renal; UO-31 renal.
Holding throughout (assay): DTP human tumour cell line panel, 48 h

Turning to `O=C(NCCc1ccccn1)OCc1nc2nc(Cl)nc(N3CCOCC3)c2[nH]1`, the GI50 (commonly the concentration that inhibits growth by half) with MOLT-4 leukemia is 3 µM; in the assay with MALME-3M melanoma, 1.62 µM; in the assay on CCRF-CEM leukemia it was 2.18 µM; with SF-268 CNS, 1.69 µM; in the assay on LOX IMVI melanoma, 0.372 µM; in the assay with RPMI-8226 leukemia, 1.62 µM. In addition, the GI50 with HT29 colon is 1.98 µM; in the assay on HCT-116 colon, 0.816 µM; in the assay on CAKI-1 renal, 1.36 µM; with UO-31 renal, 1.28 µM. Further, the TGI (as a rule, the concentration at which net growth stops) in the assay on MOLT-4 leukemia was 9.5 µM; in the assay with MALME-3M melanoma it was 3.1 µM; with CCRF-CEM leukemia, 9.74 µM; with SF-268 CNS it was 3.8 µM; in the assay on LOX IMVI melanoma, 1.61 µM; in the assay with RPMI-8226 leukemia, 5.63 µM. The total growth inhibition concentration (TGI) turned out to be 6.75 µM with HT29 colon, 2.09 µM in the assay with HCT-116 colon, 3.04 µM in the assay with CAKI-1 renal and 2.55 µM in the assay with UO-31 renal.
Consider `COc1ccc(C(O)c2cc3c(N)c(C(=O)Nc4cccc(Cl)c4)sc3nc2C)cc1` (stereo not given), for which the GI50 in the assay with MOLT-4 leukemia is 1.54 µM; in the assay on MALME-3M melanoma, 2.48 µM; in the assay on CCRF-CEM leukemia it was 1.13 µM; in the assay on SF-268 CNS it was 2.79 µM; with LOX IMVI melanoma it was 1.71 µM; in the assay with RPMI-8226 leukemia, 3.21 µM. Moreover, the GI50 is 1.08 µM in the assay on HT29 colon, 0.921 µM in the assay on HCT-116 colon, 1.27 µM in the assay on CAKI-1 renal and 2.41 µM with UO-31 renal. Further, the concentration for total growth inhibition (TGI) is above 43.3 µM in the assay on MOLT-4 leukemia; above 73.4 µM in the assay on MALME-3M melanoma; above 100 µM with CCRF-CEM leukemia; above 46.2 µM in the assay on SF-268 CNS; above 40.7 µM in the assay with LOX IMVI melanoma; above 100 µM with RPMI-8226 leukemia. Also, the TGI is above 33.4 µM with HT29 colon, above 33.1 µM in the assay on HCT-116 colon, above 39.4 µM in the assay on CAKI-1 renal and above 56.2 µM with UO-31 renal.
In the case of `c1ccc(-c2nc(N3CCOCC3)c3c4c(sc3n2)CCCCCC4)nc1`, the GI50 in the assay on MOLT-4 leukemia was 3.77 µM; with MALME-3M melanoma, 3.32 µM; with CCRF-CEM leukemia, 3.59 µM; in the assay with SF-268 CNS, 8.82 µM; with LOX IMVI melanoma, 5.24 µM; in the assay with RPMI-8226 leukemia it was 2.12 µM. Besides, the GI50 in the assay with HT29 colon was 6.05 µM; with HCT-116 colon, 3.69 µM; with CAKI-1 renal it was 2.29 µM; with UO-31 renal, 1.17 µM. Also, the TGI in the assay with MOLT-4 leukemia was 17 µM; in the assay on MALME-3M melanoma, 14.9 µM; with CCRF-CEM leukemia it was 18.9 µM; with SF-268 CNS it was 22.6 µM; with LOX IMVI melanoma, 20.9 µM; in the assay with RPMI-8226 leukemia it was 9.67 µM. The total growth inhibition concentration (TGI) was found to be 22.7 µM with HT29 colon, 15.3 µM with HCT-116 colon, 16.1 µM in the assay with CAKI-1 renal and 10.3 µM in the assay on UO-31 renal.
For the compound `C=CCC1=C(C)C[C@@H]2CCC(=O)C=C12`, the TGI with MOLT-4 leukemia, in the assay with MALME-3M melanoma, with CCRF-CEM leukemia, in the assay with SF-268 CNS, in the assay on LOX IMVI melanoma and with RPMI-8226 leukemia was above 100 µM throughout. Also, the TGI in the assay with HT29 colon, in the assay on HCT-116 colon, in the assay on CAKI-1 renal and with UO-31 renal was above 100 µM throughout.
Turning to `NNC(=O)C(=O)N/N=C1\CCC(=O)CC1C(=O)CCC(=O)Nc1ccc(Cl)cc1` (stereo not given), the TGI in the assay with MOLT-4 leukemia, in the assay with MALME-3M melanoma, in the assay with CCRF-CEM leukemia, with SF-268 CNS, in the assay with LOX IMVI melanoma and in the assay on RPMI-8226 leukemia was above 100 µM in each case. Also, the TGI with HT29 colon, in the assay with HCT-116 colon, in the assay with CAKI-1 renal and with UO-31 renal was above 100 µM throughout.
Consider `COc1ccc(CCc2cc(OC)cc(OC)c2)cc1`, for which the total growth inhibition concentration (TGI) in the assay on MOLT-4 leukemia was 56.5 µM; in the assay on MALME-3M melanoma, above 83.7 µM; in the assay on CCRF-CEM leukemia it was 96.8 µM; in the assay with SF-268 CNS, above 100 µM; in the assay with LOX IMVI melanoma, above 100 µM; with RPMI-8226 leukemia, 94.8 µM. The TGI was 47.9 µM with HT29 colon, above 100 µM with HCT-116 colon, above 100 µM with CAKI-1 renal and above 100 µM in the assay on UO-31 renal.
Turning to `Cc1ccc(S(=O)(=O)c2nc(-c3ccccc3)oc2S(C)=O)cc1` (stereo not given), the GI50 is 2.12 µM in the assay on MOLT-4 leukemia; 1.7 µM in the assay on MALME-3M melanoma; 2.77 µM in the assay on CCRF-CEM leukemia; 2.14 µM in the assay with SF-268 CNS; 1.4 µM in the assay on LOX IMVI melanoma; 1.4 µM with RPMI-8226 leukemia. For the same compound, the GI50 in the assay on HT29 colon was 1.81 µM; with HCT-116 colon, 1.49 µM; in the assay with CAKI-1 renal, 1.5 µM; with UO-31 renal it was 1.26 µM. Further, the total growth inhibition concentration (TGI) in the assay with MOLT-4 leukemia came to 5.5 µM; with MALME-3M melanoma, 3.47 µM; with CCRF-CEM leukemia it was 8.08 µM; in the assay on SF-268 CNS it was 4.14 µM; in the assay with LOX IMVI melanoma it was 2.81 µM; with RPMI-8226 leukemia, 4.13 µM. The TGI with HT29 colon came out at 5.03 µM; in the assay with HCT-116 colon, 2.89 µM; in the assay on CAKI-1 renal, 2.84 µM; with UO-31 renal it was 2.53 µM.
Turning to `Cc1c(NC(=S)NC(=O)c2ccc([N+](=O)[O-])cc2)c(=O)n(-c2ccccc2)n1C`, the concentration for total growth inhibition (TGI) with MOLT-4 leukemia, in the assay on MALME-3M melanoma, in the assay with CCRF-CEM leukemia, with SF-268 CNS, with LOX IMVI melanoma and in the assay on RPMI-8226 leukemia was above 100 µM in each case. Further, the TGI in the assay with HT29 colon, in the assay with HCT-116 colon, in the assay on CAKI-1 renal and in the assay on UO-31 renal was above 100 µM each time.
For the compound `O=c1/c(=C\c2ccc(F)cc2)sc2n1C(c1ccc(F)cc1)C1=C(N=2)c2ccc3ccccc3c2OCC1` (stereo not given), the GI50 with MOLT-4 leukemia is above 100 µM; in the assay with MALME-3M melanoma it was above 100 µM; with CCRF-CEM leukemia, above 100 µM; in the assay on SF-268 CNS it was above 30.8 µM; with LOX IMVI melanoma, above 100 µM; with RPMI-8226 leukemia it was above 100 µM. Besides, the GI50 in the assay with HT29 colon, with HCT-116 colon and in the assay with UO-31 renal was above 100 µM in each case. For the same compound, the concentration for total growth inhibition (TGI) in the assay with MOLT-4 leukemia, with MALME-3M melanoma, with CCRF-CEM leukemia, in the assay on SF-268 CNS, in the assay on LOX IMVI melanoma and in the assay on RPMI-8226 leukemia was above 100 µM each time. For the same compound, the TGI is above 100 µM with HT29 colon, above 100 µM with HCT-116 colon, above 66.9 µM in the assay with CAKI-1 renal and above 100 µM in the assay with UO-31 renal.
`CC(C)=CCC(OC(=O)C=C(C)C)C1=CC(=O)c2c(O)ccc(O)c2C1=O` (stereo not given): the GI50 with MOLT-4 leukemia was 0.182 µM and 0.0424 µM; in the assay on MALME-3M melanoma, 0.694 µM; in the assay on CCRF-CEM leukemia, 0.0241 µM; with SF-268 CNS it was 3.35 µM; with RPMI-8226 leukemia it was 0.724 µM; in the assay with HT29 colon, 2.49 µM. Besides, the GI50 in the assay with HCT-116 colon was 0.63 µM; in the assay on UO-31 renal it was 0.993 µM. The TGI in the assay with MOLT-4 leukemia is 1.29 µM and 1.42 µM; in the assay with MALME-3M melanoma it was 3.09 µM and 1.07 µM; in the assay on SF-268 CNS, 9.83 µM and 4.06 µM; in the assay on LOX IMVI melanoma, 0.894 µM and 3.07 µM; in the assay on HT29 colon it was 8.41 µM and 4.43 µM; in the assay with HCT-116 colon, 2.68 µM and 1.04 µM. For the same compound, the concentration for total growth inhibition (TGI) was 3.12 µM and 2 µM in the assay on CAKI-1 renal; 5.49 µM and 7.74 µM with UO-31 renal.
Turning to `CC1=NN(C(=O)c2ccc(Cl)cc2)C(=O)/C1=C/c1ccccc1O`, the TGI in the assay on MOLT-4 leukemia, in the assay with MALME-3M melanoma, in the assay on CCRF-CEM leukemia, with SF-268 CNS, in the assay with LOX IMVI melanoma and in the assay with RPMI-8226 leukemia was above 100 µM in each case. The total growth inhibition concentration (TGI) in the assay on HT29 colon, with HCT-116 colon, in the assay on CAKI-1 renal and with UO-31 renal was above 100 µM throughout.
Take `OCc1ccc(-c2cscc2-c2ccc(CO)o2)o1`: the GI50 with MOLT-4 leukemia was above 100 µM; in the assay on MALME-3M melanoma, above 100 µM; in the assay with CCRF-CEM leukemia, above 100 µM; in the assay on SF-268 CNS, above 100 µM; in the assay on LOX IMVI melanoma, above 100 µM; with RPMI-8226 leukemia it was 28.4 µM. Also, the GI50 is 7.03 µM in the assay on HT29 colon, 1.65 µM in the assay on HCT-116 colon, 5 µM in the assay with CAKI-1 renal and 56.1 µM in the assay with UO-31 renal. Moreover, the total growth inhibition concentration (TGI) with MOLT-4 leukemia, in the assay with MALME-3M melanoma, with CCRF-CEM leukemia, in the assay on SF-268 CNS, with LOX IMVI melanoma and with RPMI-8226 leukemia was above 100 µM throughout. Further, the total growth inhibition concentration (TGI) was above 100 µM in the assay on HT29 colon, above 69.5 µM with HCT-116 colon, above 100 µM in the assay on CAKI-1 renal and above 100 µM in the assay on UO-31 renal.
Consider `O=C1CC(c2[nH]nc3ccccc23)C(=O)N1c1ccccc1` (stereo not given), for which the concentration for total growth inhibition (TGI) in the assay with MOLT-4 leukemia is above 100 µM; in the assay on MALME-3M melanoma it was above 100 µM; with CCRF-CEM leukemia it was above 71.8 µM; in the assay on SF-268 CNS, above 100 µM; in the assay on LOX IMVI melanoma, above 100 µM; with RPMI-8226 leukemia, above 100 µM. Also, the TGI in the assay with HT29 colon, in the assay on HCT-116 colon, in the assay on CAKI-1 renal and in the assay with UO-31 renal was above 100 µM in each case.
On to `CN(C)c1nc2ccccc2c2c1c1c(n2Cc2ccccc2)-c2ccccc2C1=O`, for which the GI50 in the assay on MOLT-4 leukemia was 25.5 µM; in the assay on MALME-3M melanoma, above 100 µM; in the assay with CCRF-CEM leukemia, 62.7 µM; in the assay on SF-268 CNS, above 100 µM; in the assay on LOX IMVI melanoma, above 100 µM; with RPMI-8226 leukemia it was above 100 µM. For the same compound, the GI50 was 12.2 µM in the assay on HT29 colon, 8.79 µM with HCT-116 colon, above 100 µM in the assay with CAKI-1 renal and above 100 µM with UO-31 renal. Besides, the TGI in the assay with MOLT-4 leukemia, with MALME-3M melanoma, with CCRF-CEM leukemia, in the assay with SF-268 CNS, in the assay on LOX IMVI melanoma and with RPMI-8226 leukemia was above 100 µM in each case. Further, the concentration for total growth inhibition (TGI) in the assay with HT29 colon, in the assay with HCT-116 colon, in the assay with CAKI-1 renal and with UO-31 renal was above 100 µM each time.
